What was measured:
Type in all cases: cell-based
human TASK-1 [1] = molecular target: T1, human TASK-1 (Homo sapiens (Human), UniProt O14649); assay: Two-electrode voltage clamp of human TASK-1 channels expressed in Xenopus laevis oocytes
Procedure: (§1) B-1. In Vitro Electrophysiological Analysis of the Human TASK-1 and TASK-3 Channels Via Two-Electrode Voltage Clamp Technique in Xenopus laevis Oocytes
(§2) Xenopus laevis oocytes were selected as described elsewhere by way of illustration [Decher et al., FEBS Lett. 492, 84-89 (2001)]. Subsequently, the oocytes were injected with 0.5-5 ng of a cRNA solution coding for TASK-1 or TASK-3. For the electrophysiological analysis of the channel proteins expressed in the oocytes, the two-electrode voltage clamp technique [Stiihmer, Methods Enzymol. 207, 319-339 (1992)] was used. The measurements were conducted as described [Decher et al., FEBS Lett. 492, 84-89 (2001)] at room temperature (21-22° C.) using a Turbo TEC 10CD amplifier (NPI), recorded at 2 kHz and filtered with 0.4 kHz. Substance administration was performed using a gravitation-driven perfusion system. Here, the oocyte is located in a measuring chamber and exposed to the solution stream of 10 ml/min. The level in the measuring chamber is monitored and regulated by sucking off the solution using a peristaltic pump.

human TASK-3 [2] = molecular target: T2, human TASK-3 (Homo sapiens (Human), UniProt Q9NPC2); assay: Inhibition of recombinant TASK-3 in stably transfected CHO cells (voltage-sensitive dye, 40 mM KCl depolarization); conditions: 40 mM potassium chloride
Procedure: (§3) B-2. Inhibition of Recombinant TASK-1 and TASK-3 In Vitro
(§4) The investigations on the inhibition of the recombinant TASK-1 and TASK-3 channels were conducted using stably transfected CHO cells. The compounds according to the invention were tested in this case by application of 40 mM potassium chloride in the presence of a voltage-sensitive dye according to the methods described in detail in the following references [Whiteaker et al., Validation of FLIPR membrane potential dye for high-throughput screening of potassium channel modulators, J. Biomol. Screen. 6 (5), 305-312 (2001); Molecular Devices FLIPR Application Note: Measuring membrane potential using the FLIPR® membrane potential assay kit on Fluorometric Imaging Plate Reader (FLIPR®) systems, http://www.moleculardevices.com/reagents-supplies/assay-kits/ion-channels/flipr-membrane-potential-assay-kits]. The activity of the test substances was determined as their ability to inhibit a depolarization induced in the recombinant cells by 40 mM potassium chloride. The concentration which can block half of this depolarization is referred to as IC50.

human TASK-3 [3] = molecular target: T2, human TASK-3; assay: Two-electrode voltage clamp of human TASK-3 channels expressed in Xenopus laevis oocytes
Procedure: as §1, §2

human TASK-1 [4] = molecular target: T1, human TASK-1; assay: Inhibition of recombinant TASK-1 in stably transfected CHO cells (voltage-sensitive dye, 40 mM KCl depolarization); conditions: 40 mM potassium chloride
Procedure: as §3, §4

T2 sequence (Q9NPC2 whole entry): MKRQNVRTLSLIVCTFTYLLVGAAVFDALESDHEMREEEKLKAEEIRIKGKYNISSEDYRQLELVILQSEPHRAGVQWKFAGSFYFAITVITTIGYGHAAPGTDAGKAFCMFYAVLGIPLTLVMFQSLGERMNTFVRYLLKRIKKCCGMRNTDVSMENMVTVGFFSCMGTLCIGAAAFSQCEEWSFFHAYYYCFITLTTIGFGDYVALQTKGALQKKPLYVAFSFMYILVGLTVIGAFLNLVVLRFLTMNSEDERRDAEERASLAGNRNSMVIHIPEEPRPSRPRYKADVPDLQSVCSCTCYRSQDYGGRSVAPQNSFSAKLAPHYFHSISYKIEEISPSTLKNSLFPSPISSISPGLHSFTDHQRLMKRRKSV
T1 sequence (O14649 whole entry): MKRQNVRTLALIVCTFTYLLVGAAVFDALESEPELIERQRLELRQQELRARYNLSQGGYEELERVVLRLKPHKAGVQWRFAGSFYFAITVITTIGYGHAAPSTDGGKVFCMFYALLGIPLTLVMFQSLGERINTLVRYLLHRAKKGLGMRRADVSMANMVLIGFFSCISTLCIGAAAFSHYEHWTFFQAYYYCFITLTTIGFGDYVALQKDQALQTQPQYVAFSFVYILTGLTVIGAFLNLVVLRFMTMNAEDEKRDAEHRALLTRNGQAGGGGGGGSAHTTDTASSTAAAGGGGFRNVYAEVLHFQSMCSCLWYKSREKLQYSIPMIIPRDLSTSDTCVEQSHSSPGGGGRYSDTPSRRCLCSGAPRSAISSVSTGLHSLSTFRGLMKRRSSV

Compound | IC50 (human TASK-1 [1]) | IC50 (human TASK-3 [2]) | IC50 (human TASK-3 [3]) | IC50 (human TASK-1 [4])
COc1cccc(C(=O)N2CC3CN(Cc4c(-c5ccc(Br)cc5)nc5ccccn45)CC3C2)c1 (stereo not drawn) [Example 10] | 31.2 ± 1.7 nM | 485 nM | 970 ± 220 nM | 206 nM
COc1cccc(C(=O)N2CC3CN(Cc4c(-c5ccc(Cl)cc5)nc5ccccn45)CC3C2)c1 (stereo not drawn) [Example 17] | 9.3 ± 2.5 nM | 1900 nM | 21.8 ± 2.2 nM | 721 nM
COc1cccc(C(=O)N2CC3CN(Cc4c(-c5ccc(C(C)C)cc5)nc5ccccn45)CC3C2)n1 (stereo not drawn) [Example 25] | 62.2 ± 7.9 nM | 410 nM | 44.1 ± 5.8 nM | 230 nM
